ChEMBL document CHEMBL1143054, “Antimalarial linear lipopeptides from a Panamanian strain of the marine cyanobacterium Lyngbya majuscula” (J Nat Prod, 2007)
Non-standard residues stand in square brackets, D forms with d. Residues, ends and D or L forms follow the SMILES beside them. *: point of attachment. NMeY = CN[C@@H](Cc1ccc(O)cc1)C(=O)O; NMeF = CN[C@@H](Cc1ccccc1)C(=O)O; NMeV = CN[C@H](C(=O)O)C(C)C; X1 = C#CCCCCC(C)CC(C)C(=O)*; X2 = C#CCCCC[C@H](C)C(=O)*; NMeA = CN[C@@H](C)C(=O)O

Key:
[1] = system: Plasmodium falciparum; test: Antimalarial activity against chloroquine-resistant Plasmodium falciparum W2 by fluorimetry; assay type: functional, organism-based
[2] = system: Vero; test: Cytotoxicity against Vero cells after 4 hrs; assay type: cell-based; conditions: Chlorocebus sabaeus

| SMILES | IC50 [1] [µM] | IC50 [2] [µM] |
| --- | --- | --- |
| C#CCCCC[C@H](C)C(=O)N(C)[C@@H](Cc1ccccc1)C(=O)N[C@@H](C)C(=O)N(C)[C@@H](C)C(=O)N(C)[C@@H](Cc1ccc(OC)cc1)C(N)=O [DRAGOMABIN] (X2-[NMeF]A[NMeA][NMeY](Me)-NH2) | 21 | 182 |
| C#CCCCCC(C)CC(C)C(=O)N(C)[C@@H](Cc1ccccc1)C(=O)N[C@@H](C)C(=O)N(C)[C@@H](C)C(=O)N(C)[C@@H](Cc1ccc(OC)cc1)C(N)=O (stereo partly specified) [CARMABIN A] (X1-[NMeF]A[NMeA][NMeY](Me)-NH2) | 1.4 | 9.8 |
| C#CCCCC[C@H](C)C(=O)N(C)[C@H](C(=O)N(C)[C@H](C(=O)N(C)[C@H](C(=O)N(C)[C@@H](Cc1ccccc1)C(N)=O)C(C)C)C(C)C)C(C)C [DRAGONAMIDE A] (X2-[NMeV][NMeV][NMeV][NMeF]-NH2) | 10.7 | 67.8 |
